{"source": "paper PMC5760531", "about": "“Action Potential Recording and Pro-arrhythmia Risk Analysis in Human Ventricular Trabeculae” (Frontiers in Physiology, 2018)", "origin": "cited, not measured here", "key": {"[1]": {"details": "cited from earlier work"}, "hERG": {"test_system": "hERG", "details": "read-out: IC50 for hERG; previous experiments; ref Qu and Vargas, 2015; cited from earlier work"}}}
{"smiles": "Nc1nnc(-c2cccc(Cl)c2Cl)c(N)n1", "note": "[LAMOTRIGINE, Lamotrigine]", "values": [{"measurement": "Free ETPC", "setting": "[1]; human free (unbound) effective therapeutic plasma concentration used to calculate multiples", "result": 17, "unit": "µM"}, {"measurement": "free therapeutic exposure", "setting": "[1]; human, ref Dixon et al., 2008", "result": "approximately 17 μM"}, {"measurement": "IC50", "setting": "hERG", "result": 110, "unit": "µM"}]}
